How the values were obtained:
Experiment in all cases: Natural transformation in CDM upon addition of synthetic peptide
Assay type in all cases: cell-based, Streptococcus thermophilus
Details in all cases: 1 μM LPYFAGCL, 1 μg/mL pUC18_stu0855::P32cat
S. thermophilus DGCC7854 = test system: S. thermophilus DGCC7854
Description: (§1) Similarly to the protocol used in example 4, various S. thermophilus strains, including LMD-9, CNRZ1066 and LMG18311 used as controls, were pre-cultivated in M17-lactose medium. The cells of the precultures were harvested (5000 g, 9 minutes, 20° C.) and washed twice in CDM and then resuspended in CDM. The washed cells were diluted in fresh CDM medium to obtain an optical density of 0.05, and then incubated at 37° C. After 1.5 h of incubation, in one set of experiment, 1 μM of one of the tested synthetic peptides (LPYFAGCL) (SEQ ID NO: 85) and 1 μg/mL of pGIUD0855cat DNA were added to the culture, whereas 1 μg/mL of DNA but no synthetic peptide was added to the second set of experiment. Plasmid pGIUD0855cat is a pUC18-derivative containing a chloramphenicol resistance cassette flanked by 1-kb fragments corresponding to the upstream and downstream regions of stu0855. Upon transformation, it promotes the genetic replacement of stu0855 by P32-cat through homologous recombination (FIG. 7). The cultures were grown during 6 hours and serial dilutions were plated on the surface of M17-lactose agar medium containing 5 μg/mL of chloramphenicol to measure transformation efficiency. Transformed S. thermophilus cells were selected at 37° C.; when transformants were obtained, the transformation efficiency was calculated and is given in Table 9.

S. thermophilus DGCC7809 = test system: S. thermophilus DGCC7809
Description: as §1

S. thermophilus DGCC7666 = test system: S. thermophilus DGCC7666
Description: as §1

S. thermophilus DGCC782 = test system: S. thermophilus DGCC782
Description: as §1

S. thermophilus DGCC715 = test system: S. thermophilus DGCC715
Description: as §1

S. thermophilus DGCC7853 = test system: S. thermophilus DGCC7853
Description: as §1

S. thermophilus DGCC7694 = test system: S. thermophilus DGCC7694
Description: as §1

S. thermophilus DGCC7710 = test system: S. thermophilus DGCC7710
Description: as §1

S. thermophilus DGCC7796 = test system: S. thermophilus DGCC7796
Description: as §1

S. thermophilus DGCC7891 = test system: S. thermophilus DGCC7891
Description: as §1

S. thermophilus DGCC7790 = test system: S. thermophilus DGCC7790
Description: as §1

S. thermophilus DGCC7879 = test system: S. thermophilus DGCC7879
Description: as §1

S. thermophilus DGCC3367 = test system: S. thermophilus DGCC3367
Description: as §1

S. thermophilus DGCC7773 = test system: S. thermophilus DGCC7773
Description: as §1

## LPYFAGCL (fragment) [synthetic peptide corresponding to a C-terminal fragment of Shp316]
S. thermophilus DGCC7854
  Transformation rate, With peptide addition: 5.3 × 10^−3
S. thermophilus DGCC7809
  Transformation rate, With peptide addition: 5.8 × 10^−4
S. thermophilus DGCC7666
  Transformation rate, With peptide addition: 4.2 × 10^−2
S. thermophilus DGCC782
  Transformation rate, With peptide addition: 2 × 10^−3
S. thermophilus DGCC715
  Transformation rate, With peptide addition: 1.2 × 10^−2
S. thermophilus DGCC7853
  Transformation rate, With peptide addition: 4.9 × 10^−4
S. thermophilus DGCC7694
  Transformation rate, With peptide addition: 3.9 × 10^−2
S. thermophilus DGCC7710
  Transformation rate, With peptide addition: 1 × 10^−2
S. thermophilus DGCC7796
  Transformation rate, With peptide addition: 6.9 × 10^−2
S. thermophilus DGCC7891
  Transformation rate, With peptide addition: 1.4 × 10^−4
S. thermophilus DGCC7790
  Transformation rate, With peptide addition: 4.3 × 10^−2
S. thermophilus DGCC7879
  Transformation rate, With peptide addition: 8.6 × 10^−3
S. thermophilus DGCC3367
  Transformation rate, With peptide addition: 1.8 × 10^−3
S. thermophilus DGCC7773
  Transformation rate, With peptide addition: 1.5 × 10^−1

From patent US9243254B2, “Method for transforming a bacterium belonging to the streptococcus genus by natural competence” (priority 2009, dated 2016)
